Like-named read-outs stand apart in the source and are kept apart here. Non-standard residues stand in square brackets, D forms with d. Residues, ends and D or L forms follow the SMILES beside them.
Tests used:
δ-opioid receptor (δOR) = molecular target: T1, δ-opioid receptor (δOR) (Rattus norvegicus, UniProt P33533); assay: competitive radioligand displacement assay, δOR, [3H]DELT II, rat brain homogenate membranes; assay type: binding; settings: for δOR affinity in words: [3H]DELT II displacement, compared to parent TAPP
T1 construct: from tissue; host or cells: rat brain homogenate (membrane fractions)
Experimental: (§1) The determinations were performed by a competitive radioligand displacement assay with selective radioligands.
(§2) Membrane fractions of rat brain Homogenate were incubated at 25 °C for 60 mins in the presence of radioligands (0.5 nM) specific for each receptor (μOR: [^3H]DAMGO and δOR: [^3H]DELT II, obtained as a generous gift from Prof. Géza Tóth) and the increasing concentrations of the tested compounds (10^−11 up to 10^−5 M, each concentration in duplicate). For measuring non-specific binding, 10 μM naloxone was used as the competitor. The assay buffer contained 50mM Tris-HCl (pH 7.4), bovine serum albumin (0.1 mg/mL), bacitracin (30 μg/mL), bestatin (30 μM), captopril (10 μM), and phenylmethylsulfonyl fluoride (0.1 mM) in the total reaction volume of 1 mL. After the incubation, the binding reactions were terminated by rapid filtration with M-24 Cell Harvester (Brandel/USA) through GF/B Whatman glass fibre strips. The filters were pre-soaked with 0.5% PEI before harvesting in order to minimize non-specific binding. Filter discs were placed separately in 24-well plates and immersed with the Optiphase Supermix scintillation cocktail (Perkin Elmer, Waltham, MA, USA). Radioactivity was measured using a MicroBeta LS Trilux scintillation counter (PerkinElmer, Waltham, MA, USA).

[1] = stability against proteolysis in human plasma by HPLC/MS; assay type: in vitro ADME; settings: for site of the first proteolytic cleavage: HPLC/MS; for stability in human plasma in words: up to 96 h, compared to TAPP; for remaining at 96 h, 350 µM: read-out: C96h, percent of the initial peptide concentration remaining after 96 h; for half-life / half-life at […]: read-out: half-life time (T1/2) in human plasma (converted)
Experimental: The results are graphically presented in Figure 7 and the representative HPLC chromatograms are given in Figures SM-STAB-1 to SM-STAB-22 in Supplementary Materials. […] After 96 h, more than 90% of the initial peptide concentration (C96h > 90%) remained in the test sample. This is in marked contrast to endomorphin-2 (Tyr-Pro-Phe-Phe-NH2) that, in the very same conditions, is rapidly degraded with half-life time (T1/2) of only 30 min.
The determination of plasma stability was performed according to a previously described protocol with minor modifications. Human plasma for testing was obtained from a healthy donor. […] Portions of the plasma (100 μL) were dispensed into Eppendorf tubes and equilibrated at 37 ± 1 °C for 5 min, before adding 100 μL of the stock solution of each tested peptide. Samples of the test solution were taken and analyzed at several time points (0, 1, 2, 3, 4, 5, 6, 12, 24, 48, and 96 h of the experiment).
In order to precipitate the plasma proteins, 400 μL ethanol (98%) was added to the samples, whereafter shaking (1 min) and cooling in 4 °C (5 min) followed. Subsequently, the samples were centrifuged for 10 min at 2000 g. The supernatant (20 μL) was immediately analyzed by HPLC/MS using the LCMS-2010EV Shimadzu apparatus with a Phenomenex Jupiter 4u Proteo 90A, C12 (25 cm × 2 mm × 4 μm) column. The chromatography was performed in reversed-phase system (solvents A: 0.05% FA in water, B: 0.05% FA in acetonitrile) with a non-linear gradient was used (1–31% B in 20 min followed by an increase to 97% B from 20 to 30 min) at a solvent flow of 0.5 mL/min. The activity of the plasma was confirmed by using endomorphin-2 ([…]) as a control sample. The results of the HPLC/MS analyses allowed for quantitative determination of the concentration changes of the tested peptides. Furthermore, it was possible to indicate the location of the first proteolytic cleavage.

μ-opioid receptor (μOR) = molecular target: T2, μ-opioid receptor (μOR) (Rattus norvegicus, UniProt P33535); assay: competitive radioligand displacement assay, μOR, [3H]DAMGO, rat brain homogenate membranes; assay type: binding; settings: for decrease in μOR affinity compared to the parent TAPP: ratio of IC50 versus TAPP
T2 construct: from tissue; host or cells: rat brain homogenate (membrane fractions)
Experimental: as §1, §2

[2] = Human plasma for testing was obtained from a healthy donor; settings: 37 ± 1 °C, up to 96 h
[3] = radioligand 0.5 nM [3H]DELT II, rat brain homogenate, mean of three determinations in duplicate, read-out: IC50 δOR
[4] = radioligand 0.5 nM [3H]DAMGO, rat brain homogenate, mean of three determinations in duplicate, read-out: IC50 ± S.E.M. μOR

T1 sequence (P33533 whole entry): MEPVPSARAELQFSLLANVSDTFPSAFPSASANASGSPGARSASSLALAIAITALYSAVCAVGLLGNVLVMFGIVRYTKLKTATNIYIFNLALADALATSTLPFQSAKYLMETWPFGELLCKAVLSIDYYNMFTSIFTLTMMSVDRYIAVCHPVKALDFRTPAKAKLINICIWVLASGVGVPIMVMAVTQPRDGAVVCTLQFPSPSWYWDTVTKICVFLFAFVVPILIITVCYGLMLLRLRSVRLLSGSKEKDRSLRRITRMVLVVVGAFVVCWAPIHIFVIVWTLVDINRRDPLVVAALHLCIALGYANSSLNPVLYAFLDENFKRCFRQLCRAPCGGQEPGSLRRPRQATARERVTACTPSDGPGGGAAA
T2 sequence (P33535 whole entry): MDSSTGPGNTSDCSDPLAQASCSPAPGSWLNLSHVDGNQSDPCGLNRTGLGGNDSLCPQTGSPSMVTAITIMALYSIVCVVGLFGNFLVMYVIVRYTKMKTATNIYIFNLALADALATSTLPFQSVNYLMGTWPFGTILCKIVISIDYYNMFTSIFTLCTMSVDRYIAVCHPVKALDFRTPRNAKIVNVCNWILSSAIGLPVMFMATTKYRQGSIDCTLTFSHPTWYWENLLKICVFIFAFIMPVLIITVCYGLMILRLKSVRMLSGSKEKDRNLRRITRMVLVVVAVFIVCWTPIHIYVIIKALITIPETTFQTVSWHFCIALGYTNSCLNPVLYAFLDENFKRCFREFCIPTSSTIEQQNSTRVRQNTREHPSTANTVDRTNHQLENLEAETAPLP

Q: For `C[C@@H](NC(=O)[C@H](CN)Cc1cccc(O)c1)C(=O)N[C@@H](Cc1ccccc1)C(=O)N[C@@H](Cc1ccccc1)C(N)=O` [compound 14, [(S)-β^2h-m-Tyr^1]-TAPP*], which “δOR affinity in words” value (δ-opioid receptor (δOR)) is on record?
A: did not exhibit any measurable binding

Q: What about the IC50 (δ-opioid receptor (δOR); [3]) of the same molecule?
A: > 10000 nM

Q: What about the “site of the first proteolytic cleavage” value [1] of the same molecule?
A: C-terminal amide (deamidation)

Q: And the “stability in human plasma in words” value [1]?
A: stability similar to TAPPs

Q: And the IC50 (μ-opioid receptor (μOR); [4])?
A: 11.2 ± 6.3 nM

Q: With `C[C@@H](NC(=O)[C@@H](N)Cc1ccc(O)cc1)C(=O)NC[C@H](Cc1ccccc1)C(=O)N[C@@H](Cc1ccccc1)C(N)=O` [compound 16, [(S)-β^2hPhe^3]-TAPP] as the molecule, how does the IC50 (δ-opioid receptor (δOR)) read?
A: 890 nM

Q: And the “δOR affinity in words” value (δ-opioid receptor (δOR))?
A: at a level similar to the parent TAPP

Q: What about the remaining at 96 h, 350 µM ([1]; 37 °C) of the same molecule?
A: > 65%

Q: What about the IC50 (μ-opioid receptor (μOR)) of the same molecule?
A: 15.5 ± 2.5 nM

Q: With `C[C@@H](NC(=O)[C@@H](CN)Cc1cccc(O)c1)C(=O)N[C@@H](Cc1ccccc1)C(=O)N[C@@H](Cc1ccccc1)C(N)=O` [compound 9, [(R)-β^2h-m-Tyr^1]-TAPP*] as the molecule, how does the “δOR affinity in words” value (δ-opioid receptor (δOR)) read?
A: did not exhibit any measurable binding

Q: And the IC50 (δ-opioid receptor (δOR); [3])?
A: > 10000 nM

Q: What about the “site of the first proteolytic cleavage” value [1] of the same molecule?
A: C-terminal amide (deamidation)

Q: What about the “stability in human plasma in words” value [1] of the same molecule?
A: stability similar to TAPPs

Q: And the IC50 (μ-opioid receptor (μOR); [4])?
A: 48.9 ± 2.3 nM

Q: For `C[C@@H](CNC(=O)[C@@H](N)Cc1ccc(O)cc1)C(=O)N[C@@H](Cc1ccccc1)C(=O)N[C@@H](Cc1ccccc1)C(N)=O` [compound 10, [(S)-β^2hAla^2]-TAPP], which half-life ([1]; 37 °C) is on record?
A: ~270 min

Q: For [(R)-β^2hAla^2]-TAPP, which cleaved bond [2] is on record?
A: Tyr1-(R)-β^2hAla2, first_seen

Q: Which half-life ([1]; 37 °C) does the source give for `C[C@H](CNC(=O)[C@@H](N)Cc1ccc(O)cc1)C(=O)N[C@@H](Cc1ccccc1)C(=O)N[C@@H](Cc1ccccc1)C(N)=O` [compound 15, [(R)-β^2hAla^2]-TAPP] here?
A: ~270 min

Q: Which cleaved bond [2] does the source give for [(R)-β^2hPhe^4]-TAPP here?
A: Tyr1-D-Ala2, first_seen

Q: With `C[C@@H](NC(=O)[C@@H](N)Cc1ccc(O)cc1)C(=O)N[C@@H](Cc1ccccc1)C(=O)NC[C@@H](Cc1ccccc1)C(N)=O` [compound 12, [(R)-β^2hPhe^4]-TAPP] as the molecule, how does the IC50 (δ-opioid receptor (δOR)) read?
A: 708 nM

Q: And the “δOR affinity in words” value (δ-opioid receptor (δOR))?
A: at a level similar to the parent TAPP

Q: And the remaining at 96 h, 350 µM ([1]; 37 °C)?
A: 55%

Q: And the IC50 (μ-opioid receptor (μOR))?
A: 1.9 ± 2.4 nM

Q: With [(S)-β^2hPhe^4]-TAPP as the molecule, how does the cleaved bond [2] read?
A: Tyr1-D-Ala2, first_seen

Q: Which cleaved bond [2] does the source give for [(R)-β^2h-m-Tyr^1]-TAPP* here?
A: Phe4-NH2, first_seen

Q: Which cleaved bond [2] does the source give for [(R)-β^2hTyr^1]-TAPP* here?
A: Phe4-NH2, first_seen

Q: Which cleaved bond [2] does the source give for [(S)-β^2hAla^2]-TAPP here?
A: Tyr1-(S)-β^2hAla2, first_seen

Q: For `C[C@@H](NC(=O)[C@@H](N)Cc1ccc(O)cc1)C(=O)N[C@@H](Cc1ccccc1)C(=O)NC[C@H](Cc1ccccc1)C(N)=O` [compound 17, [(S)-β^2hPhe^4]-TAPP], which IC50 (δ-opioid receptor (δOR)) is on record?
A: 417 nM

Q: What about the “δOR affinity in words” value (δ-opioid receptor (δOR)) of the same molecule?
A: slight improvement in δOR affinity when compared to the parent peptide

Q: What about the remaining at 96 h, 350 µM ([1]; 37 °C) of the same molecule?
A: ~90%

Q: What about the “stability in human plasma in words” value [1] of the same molecule?
A: equally resistant to proteolysis as the parent

Q: And the IC50 (μ-opioid receptor (μOR))?
A: 7.8 ± 4 nM

Q: Which half-life at […] ([1]; same conditions, control sample) does the source give for `NC(=O)[C@H](Cc1ccccc1)NC(=O)[C@H](Cc1ccccc1)NC(=O)[C@@H]1CCCN1C(=O)[C@@H](N)Cc1ccc(O)cc1` [endomorphin-2, Tyr-Pro-Phe-Phe-NH2, reference compound] here?
A: 30 min

Q: Which “δOR affinity in words” value (δ-opioid receptor (δOR)) does the source give for `C[C@@H](NC(=O)[C@@H](CN)Cc1ccc(O)cc1)C(=O)N[C@@H](Cc1ccccc1)C(=O)N[C@@H](Cc1ccccc1)C(N)=O` [compound 8, [(R)-β^2hTyr^1]-TAPP*] here?
A: did not exhibit any measurable binding

Q: What about the IC50 (δ-opioid receptor (δOR); [3]) of the same molecule?
A: > 10000 nM

Q: What about the “site of the first proteolytic cleavage” value [1] of the same molecule?
A: C-terminal amide (deamidation)

Q: What about the “stability in human plasma in words” value [1] of the same molecule?
A: stability similar to TAPPs

Q: What about the IC50 (μ-opioid receptor (μOR); [4]) of the same molecule?
A: 77.6 ± 2.4 nM

Q: What about the “decrease in μOR affinity compared to the parent TAPP” value (μ-opioid receptor (μOR)) of the same molecule?
A: about 15 fold

Q: For `C[C@@H](NC(=O)[C@H](CN)Cc1ccc(O)cc1)C(=O)N[C@@H](Cc1ccccc1)C(=O)N[C@@H](Cc1ccccc1)C(N)=O` [compound 13, [(S)-β^2hTyr^1]-TAPP*], which “δOR affinity in words” value (δ-opioid receptor (δOR)) is on record?
A: did not exhibit any measurable binding

Q: What about the IC50 (δ-opioid receptor (δOR); [3]) of the same molecule?
A: > 10000 nM

Q: And the “site of the first proteolytic cleavage” value [1]?
A: C-terminal amide (deamidation)

Q: And the “stability in human plasma in words” value [1]?
A: stability similar to TAPPs

Q: And the IC50 (μ-opioid receptor (μOR); [4])?
A: 339 ± 5.1 nM

Q: Which cleaved bond [2] does the source give for [(S)-β^2hTyr^1]-TAPP * here?
A: Phe4-NH2, first_seen

Q: For [(S)-β^2hPhe^3]-TAPP, which cleaved bond [2] is on record?
A: Tyr1-D-Ala2, first_seen

Q: Which cleaved bond [2] does the source give for H-Y[dA]FF-NH2 here?
A: Phe4-NH2, first_seen

Q: Which cleaved bond [2] does the source give for [(R)-β^2hPhe^3]-TAPP here?
A: Tyr1-D-Ala2, first_seen

Q: For `C[C@@H](NC(=O)[C@@H](N)Cc1ccc(O)cc1)C(=O)N[C@@H](Cc1ccccc1)C(=O)N[C@@H](Cc1ccccc1)C(N)=O` [compound 1, H-Tyr-D-Ala-Phe-Phe-NH2, reference compound] (HELM PEPTIDE1{Y.[dA].F.F.[am]}$$$$V2.0), which IC50 (δ-opioid receptor (δOR)) is on record?
A: 616 nM

Q: What about the “δOR affinity in words” value (δ-opioid receptor (δOR)) of the same molecule?
A: low binding

Q: What about the remaining at 96 h, 350 µM ([1]; 37 °C) of the same molecule?
A: > 90%

Q: And the “site of the first proteolytic cleavage” value [1]?
A: C-terminal amide (deamidation)

Q: What about the “stability in human plasma in words” value [1] of the same molecule?
A: resistant to proteolysis

Q: Which cleaved bond [2] does the source give for [(S)-β^2h-m-Tyr^1]-TAPP* here?
A: Phe4-NH2, first_seen

Q: Which IC50 (δ-opioid receptor (δOR)) does the source give for `C[C@@H](NC(=O)[C@@H](N)Cc1ccc(O)cc1)C(=O)NC[C@@H](Cc1ccccc1)C(=O)N[C@@H](Cc1ccccc1)C(N)=O` [compound 11, [(R)-β^2hPhe^3]-TAPP] here?
A: 794 nM

Q: And the “δOR affinity in words” value (δ-opioid receptor (δOR))?
A: at a level similar to the parent TAPP

Q: And the half-life at […] ([1]; 37 °C)?
A: ~2400 min

Q: What about the IC50 (μ-opioid receptor (μOR)) of the same molecule?
A: 95.4 ± 2.5 nM

Q: What about the “decrease in μOR affinity compared to the parent TAPP” value (μ-opioid receptor (μOR)) of the same molecule?
A: more than 10 fold

Reference: article PMC7288052 (Molecules, 2020)
